Results from PubChem BioAssay AID1963832 (Molecular Pharmacology Branch, DTP, NCI, 2024).
pIC50: −log10 of the molar value. “And” between values parts separate entries of the source, which are not always exact repeats. Identical values can stand only once.

System: 885724-159-R-J1-PDC complex spheroid viability
Experiment: Anticancer human tumor 885724-159-R-J1-PDC patient-derived pancreatic adenocarcinoma cell line growth inhibition [POLQ]
Conditions: for viability, T/C: stronger effect = lower value
Procedure: Multicellular complex tumor spheroid response to Polymerase (POL) inhibitors (novobiocin, ART-558, RP6685) in combination with a variety of drugs and investigational agents in selected tumor cell lines
The POL inhibitors (novobiocin, ART-558, and RP6685) were evaluated both individually and in combination with standard of care and investigational anticancer small molecules within a complex spheroid model of solid tumors. . Complex spheroids include a stromal component modeled by human endothelial cells (HUVEC) and fibroblasts modeled by human mesenchymal stem cells (MSCs). The concentration ranges selected for each drug and investigational agent were based upon clinically achievable concentrations if the clinical Cmax of the agent was known.
Compounds. The drugs and investigational agents: novobiocin (NSC847541), ART-558 (NSC835418), RP-6685 (NSC848927), peposertib (NSC802822), ceralasertib (NSC780249), elimusertib (NSC800525), camonsertib (NSC841442), AZD-1390 (NSC803789), olaparib (NSC753686), talazoparib (NSC767125), rucaparib (NSC756644), sotorasib (NSC818433), MRTX-1133 (NSC836407), SN-38 (NSC673596), topotecan (NSC609699), epotoside (NSC141540), doxorubicin (NSC123127), gemcitabine (NSC613327), 5-fluorouracil (NSC19893), paclitaxel (NSC125973), vemurafenib (NSC761431), MSA-2 (NSC828583), SN-011 (NSC837082), adavosertib (NSC754352), prexasertib (NSC758257), carboplatin (NSC241240) and oxaliplatin (NSC266046), were obtained from the National Cancer Institute (NCI) Developmental Therapeutics Program Chemical Repository (21). The FDA-approved anticancer drug set is available from the Developmental Therapeutics Program at https://dtp.cancer.gov/organization/dscb/obtaining/. […] The stock solutions were prepared in dimethyl sulfoxide (DMSO, Sigma-Aldrich, St. Louis, MO, cat. D2650), except for the platinum compounds which were prepared in saline (Quality Biological, Gaithersburg, MD, cat. 114-055-101), at 800-fold the tested concentration and stored at -70 degrees C prior to their use. All drugs and investigational agents were tested over a range starting from a high concentration at or near the clinical Cmax and decreasing in half-log increments. If the clinical Cmax for an agent had not been determined, the highest concentration tested was 10 microM, except for SN-38, which was tested at a high concentration of 1 microM.
Cell Culture. All cells were maintained in an incubator at 37 degrees C and 5% CO2 with 95% humidity. The PDC lines were cultured according to standard operating procedures established by the NCI PDMR (https://pdmr.cancer.gov). Table 3 of the manuscript, lists the cell lines along with the number of the three cell types plated to form the mct-spheroids and media for tumor cell growth. After thawing, all PDC lines, except 997537-175-T-J1-PDC and 415267-285-R-J2-PDC, were cultured in Matrigel-coated flasks prepared with a working solution of 1X Ham's F-12 nutrient mix, without supplementation (Thermo Fisher Scientific, cat. 11765054), 100 U/mL penicillin-streptomycin (Thermo Fisher Scientific, cat. 15140122), and 2.5% Matrigel (Corning Inc., Corning, NY, cat. 354248) for the first three passages. The two PDC lines 997537-175-T-J1-PDC and 415267-285-R-J2-PDC were cultured on uncoated flasks. The 857933-349-R-J2-PDC line was cultured in 6C/Colon 1B media containing advanced DMEM/F-12 (Thermo Fisher Scientific, cat. 12634028), 10 mM HEPES (Thermo Fisher Scientific, cat. 15630080), 1X GlutaMAX supplement (Thermo Fisher Scientific, cat. 35050061), 0.1 mg/mL primocin (InvivoGen, San Diego, CA, cat. ant-pm-2), 10% defined fetal bovine serum, heat inactivated (HyClone Laboratories Inc., Logan, UT, cat. SH30070.03HI), 50% L-WRN conditioned media (ATCC, cat. CRL-3276), 1.25 mM N-Acetyl-L-cysteine (Sigma-Aldrich, cat. A9165), 10 mM nicotinamide (Sigma-Aldrich, cat. N0636), 1X B-27 supplement (Thermo Fisher Scientific, cat. 17504044), 1X N-2 supplement (Thermo Fisher Scientific, cat. […]

[1] = compound alone, run of 11/27/2023
[2] = compound alone, run of 12/05/2023
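Also: spheroids exposed to compounds for 7 days.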

CNCc1ccc(-c2[nH]c3cc(F)cc4c3c2CCNC4=O)cc1
viability, T/C (compound 0.0316 µM): 109% and 96.8% and 102% | viability, T/C (compound 0.1 µM): 102% and 92.6% and 112% | viability, T/C (compound 0.316 µM): 88.9% and 91.8% and 107% | viability, T/C (compound 1 µM): 87.8% and 98.4% and 99.9% | viability, T/C (compound 3.16 µM): 89.9% and 93.1% and 107% | viability, T/C (compound 10 µM): 93% and 91% and 83.8% | pIC50 (curve of compound): < 5.00

COC1C(OC(N)=O)C(O)C(Oc2ccc3c(O)c(NC(=O)c4ccc(O)c(CC=C(C)C)c4)c(=O)oc3c2C)OC1(C)C (stereo not drawn)
viability, T/C (compound 0.0316 µM): 94.1% [middle of 13 runs] | viability, T/C (compound 0.1 µM): 95.9% [middle of 13 runs] | viability, T/C (compound 0.316 µM): 98.5% [middle of 13 runs] | viability, T/C (compound 1 µM): 98.8% [middle of 12 runs] | viability, T/C (compound 3.16 µM): 98.5% [middle of 13 runs] | viability, T/C (compound 10 µM): 106% [middle of 13 runs] | pIC50 [1]: < 5.00

COc1cc(C2c3cc4c(cc3C(OC3OC5COC(C)OC5C(O)C3O)C3COC(=O)C23)OCO4)cc(OC)c1O (stereo not drawn)
viability, T/C (compound 0.0316 µM): 94.8% and 95.3% and 106% | viability, T/C (compound 0.1 µM): 86.5% and 92.2% and 82.3% | viability, T/C (compound 0.316 µM): 75.8% and 85.9% and 68.5% | viability, T/C (compound 1 µM): 64.5% (2×) and 73% | viability, T/C (compound 3.16 µM): 58.4% and 57.7% and 55.9% | viability, T/C (compound 10 µM): 48% and 53.2% and 42.6% | pIC50 (curve of compound): 5.09 and < 5.00 and 5.34

COc1cc2cc(C(=O)CCC(=O)O)sc2cc1OC
viability, T/C (compound 0.0316 µM): 102% and 90.8% and 94.2% | viability, T/C (compound 0.1 µM): 96.9% and 97.3% and 92% | viability, T/C (compound 0.316 µM): 98.9% and 97.8% and 108% | viability, T/C (compound 1 µM): 96.4% and 105% and 95.9% | viability, T/C (compound 3.16 µM): 103% and 99% and 107% | viability, T/C (compound 10 µM): 94.9% and 89% and 90.3% | pIC50 (curve of compound): < 5.00

COc1ccc([C@@H](O)c2cc(-c3ncnc4cc(N5CCOCC5)ccc34)c(F)cc2Cl)nn1
viability, T/C (compound 0.0316 µM): 94% and 96% and 96.8% | viability, T/C (compound 0.1 µM): 79.5% and 83.5% and 87.4% | viability, T/C (compound 0.316 µM): 86.8% and 78% and 76% | viability, T/C (compound 1 µM): 71.7% and 68.9% and 70.9% | viability, T/C (compound 3.16 µM): 59% and 58.1% and 55% | viability, T/C (compound 10 µM): 35.5% and 33% and 38.2% | pIC50 (curve of compound): 5.31 and 5.39 and 5.35

COc1cccc(OCCCN)c1-c1cc(Nc2cnc(C#N)cn2)n[nH]1
viability, T/C (compound 0.00316 µM): 62.5% and 76.4% and 69.2% | viability, T/C (compound 0.01 µM): 46.4% and 49.5% and 54.3% | viability, T/C (compound 0.0316 µM): 45.3% and 44.2% and 49.7% | viability, T/C (compound 0.1 µM): 42.2% and 45.4% and 51.1% | viability, T/C (compound 0.316 µM): 44.9% and 42.6% and 47% | viability, T/C (compound 1 µM): 44.4% and 47.1% and 48% | pIC50 (curve of compound): 8.11 and 8.01 and 7.49

COc1cccc2c1C(=O)c1c(O)c3c(c(O)c1C2=O)CC(O)(C(=O)CO)CC3OC1CC(N)C(O)C(C)O1 (stereo not drawn)
viability, T/C (compound 0.0316 µM): 72.9% and 74.1% and 66.6% | viability, T/C (compound 0.1 µM): 54.6% and 56% and 97.5% | viability, T/C (compound 0.316 µM): 30.8% and 36.2% and 31.9% | viability, T/C (compound 1 µM): 11.2% and 13.3% and 8.99% | viability, T/C (compound 3.16 µM): 5.6% and 5.49% and 5.32% | viability, T/C (compound 10 µM): 7.5% and 6.14% and 6.82% | pIC50 (curve of compound): 6.89 and 6.84 and 6.68

Cc1cccc(N(C)C(=O)C2C(O)CCN2c2nc(C)cc(C(F)(F)F)c2C#N)c1 (stereo not drawn)
viability, T/C (compound 0.0316 µM): 96.2% [middle of 13 runs] | viability, T/C (compound 0.1 µM): 97.6% [middle of 13 runs] | viability, T/C (compound 0.316 µM): 102% [middle of 13 runs] | viability, T/C (compound 1 µM): 100% [middle of 13 runs] | viability, T/C (compound 3.16 µM): 99.2% [middle of 13 runs] | pIC50 [1]: < 5.00 | pIC50 [2]: < 5.00

Cn1ncnc1[C@H]1c2n[nH]c(=O)c3cc(F)cc(c23)N[C@@H]1c1ccc(F)cc1
viability, T/C (compound 0.000316 µM): 96.8% and 84.9% and 99.5% | viability, T/C (compound 0.001 µM): 94.3% and 95.2% and 99.7% | viability, T/C (compound 0.00316 µM): 91.6% and 90.1% and 98.2% | viability, T/C (compound 0.01 µM): 103% and 94.9% and 99.3% | viability, T/C (compound 0.0316 µM): 97.7% and 93.4% and 103% | viability, T/C (compound 0.1 µM): 83.7% and 84.4% and 85.2% | pIC50 (curve of compound): < 7.00

Nc1ccc(C#CCN(C(=O)Cc2ncc(C(F)(F)F)cc2C(F)(F)F)c2ccc(F)cc2)nn1
viability, T/C (compound 0.0316 µM): 94.8% [middle of 13 runs] | viability, T/C (compound 0.1 µM): 93.2% [middle of 13 runs] | viability, T/C (compound 0.316 µM): 97% [middle of 13 runs] | viability, T/C (compound 1 µM): 96.2% [middle of 13 runs] | viability, T/C (compound 3.16 µM): 97.6% [middle of 13 runs] | viability, T/C (compound 10 µM): 105% [middle of 12 runs] | pIC50 [2]: < 5.00

Nc1ccn(C2OC(CO)C(O)C2(F)F)c(=O)n1 (stereo not drawn)
viability, T/C (compound 0.0316 µM): 62.8% and 66.8% and 60.1% | viability, T/C (compound 0.1 µM): 51.6% and 57% and 53.9% | viability, T/C (compound 0.316 µM): 50.6% and 51% and 51.5% | viability, T/C (compound 1 µM): 51.7% and 53% (2×) | viability, T/C (compound 3.16 µM): 51.6% and 53.4% and 54.6% | viability, T/C (compound 10 µM): 46% and 42.3% and 39.7% | pIC50 (curve of compound): 6.25 and 5.94 and 5.36

O=C(Nc1ccc(O)c(NS(=O)(=O)c2ccc(F)cc2)c1)c1ccc(-c2ccccc2)cc1
viability, T/C (compound 0.0316 µM): 98% and 103% and 91.6% | viability, T/C (compound 0.1 µM): 107% and 100% and 93.8% | viability, T/C (compound 0.316 µM): 101% and 88.4% and 88.6% | viability, T/C (compound 1 µM): 100% and 110% and 97.2% | viability, T/C (compound 3.16 µM): 112% and 118% and 108% | viability, T/C (compound 10 µM): 117% and 97.2% and 76% | pIC50 (curve of compound): < 5.00

O=C(c1cc(Cc2n[nH]c(=O)c3ccccc23)ccc1F)N1CCN(C(=O)C2CC2)CC1
viability, T/C (compound 0.0316 µM): 103% and 105% (2×) | viability, T/C (compound 0.1 µM): 97.6% and 102% and 98% | viability, T/C (compound 0.316 µM): 97.1% and 109% and 95.8% | viability, T/C (compound 1 µM): 94% and 107% and 93.8% | viability, T/C (compound 3.16 µM): 93.9% and 95.7% and 87.6% | viability, T/C (compound 10 µM): 78.1% and 78.9% and 82.2% | pIC50 (curve of compound): < 5.00

O=c1[nH]cc(F)c(=O)[nH]1
viability, T/C (compound 0.0316 µM): 98.3% and 96.3% and 103% | viability, T/C (compound 0.1 µM): 102% and 95.3% and 108% | viability, T/C (compound 0.316 µM): 103% and 89.2% and 105% | viability, T/C (compound 1 µM): 87.9% and 98.7% and 102% | viability, T/C (compound 3.16 µM): 87.6% and 89.9% and 91.7% | viability, T/C (compound 10 µM): 75% and 75.8% and 71.4% | pIC50 (curve of compound): < 5.00
